Data from patent EP4635969A1, “NOVEL GLUCOCORTICOID, METHOD FOR PREPARING SAME, AND USE THEREOF” (Tianjin Pharmaceutical Biotechnology Co., Ltd., priority 2022, dated 2024).

Columns and labels:
[1] = system: dry eye syndrome model New Zealand rabbits; assay: Dry eye syndrome experiment (benzalkonium chloride model): tear film break-up time; assay type: in vivo, male New Zealand White rabbits; conditions: compared with the model group
[2] = system: dry eye syndrome model New Zealand rabbits; assay: Dry eye syndrome experiment (benzalkonium chloride model): corneal fluorescein sodium staining; assay type: in vivo, male New Zealand White rabbits; conditions: compared with the model group
Description: Pharmacological Example 6: Therapeutic Pharmacodynamic Experiment on Dry Eye Syndrome in New Zealand Rabbits
Positive control drug: Fluorometholone Eye Drops (specification: 5 mL/5 mg; Santen Pharmaceutical (CHINA) Co., Ltd.; Lot No.: 1FM6625) was used as the positive control drug and stored at room temperature protected from light until use.
Thirty male New Zealand White rabbits (conventional grade) were prepared. Six rabbits were randomly selected as the blank control group, and the remaining animals were administered 0.1% benzalkonium chloride to the left eye twice daily (morning and evening) , 10 µL/animal each time. […] During the administration, all animals except the blank control group were administered 10 µL of 0.1% benzalkonium chloride to the left eye once daily to maintain dry eye symptoms..
• Test time: D3, D7, D15; • Test animals: All animals were tested before grouping; all enrolled surviving animals were tested after administration; • Test method: 2 µL of 1% Fluorescein sodium was dropped into the conjunctival sac. After 5 s, the excess fluorescein was rinsed with 0.9% normal saline. The conjunctival staining was observed under a slit lamp with cobalt blue diffused light.
The normality and homogeneity of variance were tested by Levene's test. If there was no statistical significance (P > 0.05), one-way analysis of variance (ANOVA) was used for statistical analysis. If ANOVA was statistically significant (P ≤ 0.05), LSD test (parametric method) was used for comparative analysis. If the variance was heterogeneous (P ≤ 0.05), Kruskal-Wallis test was used. If the Kruskal-Wallis test was statistically significant (P ≤ 0.05), Dunnett's test (nonparametric method) was used for comparative analysis.

[3] = system: inflammatory bowel disease model rats; assay: Inflammatory bowel disease experiment (TNBS model): macroscopic injury score of the colon; assay type: in vivo; conditions: compared with the model group
Procedure, shortened: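 Colitis in rats was induced by intrarectal TNBS 50 mg/kg (20 mg/mL in 50% ethanol) after 24 h fasting. Dosing began 1 h before induction, then daily for 5 days. On day 5 colon was scored macroscopically for adhesion, obstruction, wall thickening, congestion and necrosis, with ANOVA/Dunnett or Kruskal-Wallis/Mann-Whitney statistics.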

[4] = system: intraocular pressure of guinea pigs; assay: Adverse reactions of continuous ocular administration: intraocular pressure; assay type: in vivo
Procedure, shortened: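 Guinea pigs (300-350 g, both sexes) dosed bilaterally with 5 mg/5 mL ophthalmic suspensions, saline as blank; intraocular pressure measured before dosing and on days 7, 14, 21 and 28.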

| Compound | tear film break-up time [1] | inflammatory response on the ocular surface / ocular symptoms [2] | inflammatory response on the intestinal surface / intestinal symptoms [3] | intraocular pressure after continuous ocular administration [4] |
| --- | --- | --- | --- | --- |
| C[C@]12C=CC(=O)C=C1[C@@H](F)C[C@H]1[C@@H]3C[C@H]4OC(c5ccc(CSC6CCOC6=O)nc5)O[C@@]4(C(=O)CO)[C@@]3(C)C[C@H](O)[C@@]12F (stereo partly drawn) [Compound 46, (25,6aS,6bR,78,8a8,8bS,11aR,12a8,12b8S)-2,6b-Difluoro-7-hydroxy-8b-(2-hydroxyacetyl)-6a,8a-dimethyl-10-(6-(((2-oxotetrahydrofuran-3-yl)thio)methyl)pyridin-3-yl)-1,2,6a,6b,7,8,8a,8b,11a,12, 12a,12b-dodecahydro-4H-naphtho[2',1':4,5]indeno[1,2-d][1,3]dioxol-4-one] | significantly increased the tear film break-up time | significantly alleviated the ocular symptoms in dry eye syndrome model New Zealand rabbits | significantly alleviated the intestinal symptoms in inflammatory bowel disease model rats | no abnormal intraocular pressure observed |
| C[C@]12C=CC(=O)C=C1CC[C@H]1[C@@H]3C[C@H]4OC(c5ccc(CSC6CCOC6=O)nc5)O[C@@]4(C(=O)CO)[C@@]3(C)C[C@H](O)[C@@]12F (stereo partly drawn) [Compound 47, (6aS,6bR,7S,8aS,8bS,11aR,12aS,12bS)-6b-Fluoro-7-hydroxy-8b-(2-hydroxyacetyl)-6a,8a-dimethyl-10-(6-(((2-oxotetrahydrofuran-3-yl)thio)methyl)pyridin-3-yl)-1,2,6a,6b,7,8,8a,8b,11a,12,12a,12 b-dodecahydro-4H-naphtho[2',1':4,5]indeno[1,2-d][1,3]dioxol-4-one] | significantly increased the tear film break-up time | significantly alleviated the ocular symptoms in dry eye syndrome model New Zealand rabbits | significantly alleviated the intestinal symptoms in inflammatory bowel disease model rats | no abnormal intraocular pressure observed |
| C[C@]12C=CC(=O)C=C1CC[C@H]1[C@@H]3C[C@H]4OC(c5ccc(CSC6CCOC6=O)nc5)O[C@@]4(C(=O)CO)[C@@]3(C)C[C@H](O)[C@@]12Cl (stereo partly drawn) [Compound 48, (6aS,6bR,7S,8aS,8bS,11aR,12aS,12bS)-6b-Chloro-7-hydroxy-8b-(2-hydroxyacetyl)-6a,8a-dimethyl-10-(6-(((2-oxotetrahydrofuran-3-yl)thio)methyl)pyridin-3-yl)-1,2,6a,6b,7,8,8a,8b,11a,12,12a,12 b-dodecahydro-4H-naphtho[2',1':4,5]indeno[1,2-d][1,3]dioxol-4-one] | significantly increased the tear film break-up time | significantly alleviated the ocular symptoms in dry eye syndrome model New Zealand rabbits | significantly alleviated the intestinal symptoms in inflammatory bowel disease model rats | no abnormal intraocular pressure observed |
| C[C@]12C=CC(=O)C=C1CC[C@H]1[C@@H]3C[C@H]4OC(c5ccc(CSC6CCOC6=O)cn5)O[C@@]4(C(=O)CO)[C@@]3(C)C[C@H](O)[C@@]12Cl (stereo partly drawn) [Compound 51, (6aS,6bR,7S,8aS,8bS,11aR,12aS,12bS)-6b-Chloro-7-hydroxy-8b-(2-hydroxyacetyl)-6a,8a-dimethyl-10-(5-(((2-oxotetrahydrofuran-3-yl)thio)methyl)pyridin-2-yl)-1,2,6a,6b,7,8,8a,8b,11a,12,12a,12 b-dodecahydro-4H-naphtho[2',1':4,5]indeno[1,2-d][1,3]dioxol-4-one] | significantly increased the tear film break-up time | significantly alleviated the ocular symptoms in dry eye syndrome model New Zealand rabbits | significantly alleviated the intestinal symptoms in inflammatory bowel disease model rats | no abnormal intraocular pressure observed |
